According to ChEMBL document CHEMBL1201862, “PubChem BioAssay data set” (2004):
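Interpolation was linear, between the two tested concentrations surrounding the appropriate level; five concentrations were tested over 48 hours in 96-well plates. GI50: concentration for 50% inhibition of growth.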 Activity calls are given as the source filed them. No stated cut-off is given here; in the data, active = GI50 up to about 1.1 µM and inactive = higher.

How the values were obtained:
Assay in all cases: DTP human tumour cell line panel, 48 h
SN12C = test system: SN12C
HCT-116 = test system: HCT-116
EKVX = test system: EKVX
DU-145 = test system: DU-145
HCC 2998 = test system: HCC 2998
K562 = test system: K562
SF-295 = test system: SF-295
HCT-15 = test system: HCT-15
HOP-62 = test system: HOP-62
Malme-3M = test system: Malme-3M
UACC-62 = test system: UACC-62
CCRF-CEM = test system: CCRF-CEM
MCF7 = test system: MCF7
MDA-MB-231 = test system: MDA-MB-231
Hs-578T = test system: Hs-578T
KM12 = test system: KM12
SF-539 = test system: SF-539
MOLT-4 = test system: MOLT-4
NCI-H522 = test system: NCI-H522
MDA-MB-435 = test system: MDA-MB-435
NCI-H460 = test system: NCI-H460
IGROV-1 = test system: IGROV-1
HL-60 = test system: HL-60
PC-3 = test system: PC-3
T47D = test system: T47D
CAKI-1 = test system: CAKI-1
OVCAR-5 = test system: OVCAR-5
MDA-N = test system: MDA-N
HOP-92 = test system: HOP-92
A549 = test system: A549
SNB-75 = test system: SNB-75
BT-549 = test system: BT-549
OVCAR-4 = test system: OVCAR-4
LOX IMVI = test system: LOX IMVI
COLO 205 = test system: COLO 205
A498 = test system: A498
SR = test system: SR
UO-31 = test system: UO-31
ACHN = test system: ACHN
M14 = test system: M14
SF-268 = test system: SF-268
786-0 = test system: 786-0
SK-MEL-2 = test system: SK-MEL-2
UACC-257 = test system: UACC-257
TK-10 = test system: TK-10
SW-620 = test system: SW-620
SK-OV-3 = test system: SK-OV-3
OVCAR-3 = test system: OVCAR-3
NCI-H226 = test system: NCI-H226
U-251 = test system: U-251
SK-MEL-28 = test system: SK-MEL-28
SNB-19 = test system: SNB-19
NCI-H23 = test system: NCI-H23
RPMI-8226 = test system: RPMI-8226
HT-29 = test system: HT-29
OVCAR-8 = test system: OVCAR-8
NCI/ADR-RES = test system: NCI/ADR-RES
SK-MEL-5 = test system: SK-MEL-5
RXF 393 = test system: RXF 393

## Nc1nc(Cl)c(N)c(NCC2(CO)CC(CCCc3ccccc3)C2)n1 (stereo unspecified)
SN12C
  GI50: 62.7 µM (inactive)
HCT-116
  GI50: 0.495 µM (active)
EKVX
  GI50: 0.223 µM (active)
DU-145
  GI50: 68.7 µM (inactive)
HCC 2998
  GI50: 38.2 µM (inactive)
K562
  GI50: 10.8 µM (inactive)
SF-295
  GI50: 14 µM (inactive)
HCT-15
  GI50: 51.5 µM
HOP-62
  GI50: 59.2 µM (inactive)
Malme-3M
  GI50: 1.26 µM (inactive)
UACC-62
  GI50: 24.1 µM (inactive)
CCRF-CEM
  GI50: 0.0451 µM (active)
MCF7
  GI50: 8.02 µM (inactive)
MDA-MB-231
  GI50: 41.5 µM (inactive)
Hs-578T
  GI50: 36.7 µM (inactive)
KM12
  GI50: 21.5 µM (inactive)
SF-539
  GI50: 30 µM (inactive)
MOLT-4
  GI50: 5.07 µM (inactive)
NCI-H522
  GI50: 0.121 µM (active)
MDA-MB-435
  GI50: 11.6 µM (inactive)
NCI-H460
  GI50: 33.7 µM (inactive)
IGROV-1
  GI50: 21.6 µM (inactive)
HL-60
  GI50: 0.117 µM (active)
PC-3
  GI50: 17.9 µM (inactive)
T47D
  GI50: 5.27 µM (inactive)
CAKI-1
  GI50: 34.8 µM (inactive)
OVCAR-5
  GI50: > 100 µM (inactive)
MDA-N
  GI50: 19.3 µM (inactive)
HOP-92
  GI50: 51.1 µM (inactive)
A549
  GI50: 15.5 µM (inactive)
SNB-75
  GI50: 20.4 µM (inactive)
BT-549
  GI50: 15.5 µM (inactive)
OVCAR-4
  GI50: > 33.7 µM (inactive)
LOX IMVI
  GI50: 16.7 µM (inactive)
COLO 205
  GI50: 16 µM (inactive)
A498
  GI50: 15.5 µM (inactive)
SR
  GI50: 23.6 µM (inactive)
UO-31
  GI50: 12.9 µM (inactive)
ACHN
  GI50: 35.6 µM (inactive)
M14
  GI50: 22 µM (inactive)
SF-268
  GI50: 23 µM (inactive)
786-0
  GI50: 22.7 µM (inactive)
SK-MEL-2
  GI50: 0.137 µM (active)
UACC-257
  GI50: 7.67 µM (inactive)
TK-10
  GI50: 56.2 µM (inactive)
SW-620
  GI50: 40.1 µM (inactive)
SK-OV-3
  GI50: > 100 µM (inactive)
OVCAR-3
  GI50: 19.1 µM (inactive)
NCI-H226
  GI50: 2.91 µM (inactive)
U-251
  GI50: 34.3 µM (inactive)
SK-MEL-28
  GI50: 47.1 µM (inactive)
SNB-19
  GI50: > 55.5 µM (inactive)

## COc1ccccc1[S+]([O-])Nc1ccccc1 (stereo unspecified)
SN12C
  GI50: > 100 µM (inactive)
HCT-116
  GI50: 51.1 µM (inactive)
EKVX
  GI50: > 100 µM (inactive)
DU-145
  GI50: > 100 µM (inactive)
HCC 2998
  GI50: 83.2 µM (inactive)
K562
  GI50: 25.4 µM (inactive)
SF-295
  GI50: > 100 µM (inactive)
HCT-15
  GI50: 22.8 µM
HOP-62
  GI50: > 100 µM (inactive)
Malme-3M
  GI50: > 100 µM (inactive)
UACC-62
  GI50: 10.7 µM (inactive)
CCRF-CEM
  GI50: 54.5 µM (inactive)
NCI-H23
  GI50: > 100 µM (inactive)
RPMI-8226
  GI50: 72.9 µM (inactive)
HT-29
  GI50: 50.9 µM (inactive)
MCF7
  GI50: > 100 µM (inactive)
MDA-MB-231
  GI50: > 100 µM (inactive)
OVCAR-8
  GI50: > 100 µM (inactive)
Hs-578T
  GI50: 76 µM (inactive)
KM12
  GI50: 12.5 µM (inactive)
SF-539
  GI50: 25.3 µM (inactive)
NCI/ADR-RES
  GI50: 91.4 µM (inactive)
MOLT-4
  GI50: 32.2 µM (inactive)
NCI-H522
  GI50: 38.2 µM (inactive)
MDA-MB-435
  GI50: 31 µM (inactive)
NCI-H460
  GI50: 88.1 µM (inactive)
IGROV-1
  GI50: 37.2 µM (inactive)
SK-MEL-5
  GI50: 25.5 µM (inactive)
HL-60
  GI50: 82.8 µM (inactive)
T47D
  GI50: 11.9 µM (inactive)
OVCAR-5
  GI50: > 100 µM (inactive)
MDA-N
  GI50: > 100 µM (inactive)
A549
  GI50: 74.6 µM (inactive)
BT-549
  GI50: 17.4 µM (inactive)
OVCAR-4
  GI50: > 100 µM (inactive)
LOX IMVI
  GI50: 71.9 µM (inactive)
COLO 205
  GI50: > 100 µM (inactive)
SR
  GI50: 21.6 µM (inactive)
UO-31
  GI50: 33.6 µM (inactive)
ACHN
  GI50: 87.7 µM (inactive)
SF-268
  GI50: 16.7 µM (inactive)
786-0
  GI50: > 100 µM (inactive)
SK-MEL-2
  GI50: 34 µM (inactive)
UACC-257
  GI50: 50.4 µM (inactive)
TK-10
  GI50: > 100 µM (inactive)
SW-620
  GI50: 30.7 µM (inactive)
OVCAR-3
  GI50: > 100 µM (inactive)
NCI-H226
  GI50: > 100 µM (inactive)
U-251
  GI50: 41.6 µM (inactive)
SK-MEL-28
  GI50: > 100 µM (inactive)
SNB-19
  GI50: > 100 µM (inactive)

## CSc1ccc(C2C(Cl)C(=O)N2NC(=O)c2c(Cl)c(Cl)c(Cl)c(Cl)c2-c2nc3ccccc3[nH]2)cc1 (stereo unspecified)
SN12C
  GI50: 15.8 µM (inactive)
HCT-116
  GI50: 15.8 µM (inactive)
EKVX
  GI50: 16.5 µM (inactive)
DU-145
  GI50: 15.8 µM (inactive)
HCC 2998
  GI50: 20.2 µM (inactive)
K562
  GI50: 18.1 µM (inactive)
SF-295
  GI50: 33.1 µM (inactive)
HCT-15
  GI50: 19.1 µM
RXF 393
  GI50: 1.97 µM (inactive)
HOP-62
  GI50: 79.3 µM (inactive)
Malme-3M
  GI50: 19 µM (inactive)
UACC-62
  GI50: 29.8 µM (inactive)
CCRF-CEM
  GI50: 2.48 µM (inactive)
NCI-H23
  GI50: 15.6 µM (inactive)
HT-29
  GI50: 33.3 µM (inactive)
MCF7
  GI50: 19.3 µM (inactive)
OVCAR-8
  GI50: 18.8 µM (inactive)
Hs-578T
  GI50: 32.5 µM (inactive)
KM12
  GI50: 16.8 µM (inactive)
SF-539
  GI50: 20.8 µM (inactive)
NCI/ADR-RES
  GI50: 29.9 µM (inactive)
MOLT-4
  GI50: 4.7 µM (inactive)
NCI-H522
  GI50: 1.83 µM (inactive)
MDA-MB-435
  GI50: 13.3 µM (inactive)
IGROV-1
  GI50: 0.402 µM (active)
SK-MEL-5
  GI50: 17.1 µM (inactive)
HL-60
  GI50: 19.1 µM (inactive)
PC-3
  GI50: 17.5 µM (inactive)
T47D
  GI50: 4.28 µM (inactive)
CAKI-1
  GI50: 14.9 µM (inactive)
OVCAR-5
  GI50: 22.3 µM (inactive)
MDA-N
  GI50: 21.5 µM (inactive)
HOP-92
  GI50: 11.5 µM (inactive)
A549
  GI50: 31.4 µM (inactive)
SNB-75
  GI50: 15.2 µM (inactive)
BT-549
  GI50: 17.2 µM (inactive)
LOX IMVI
  GI50: 4.18 µM (inactive)
COLO 205
  GI50: 20.3 µM (inactive)
A498
  GI50: 31.8 µM (inactive)
SR
  GI50: 2.9 µM (inactive)
UO-31
  GI50: 3.93 µM (inactive)
ACHN
  GI50: 24.2 µM (inactive)
M14
  GI50: 20.5 µM (inactive)
SF-268
  GI50: 19.1 µM (inactive)
786-0
  GI50: 18.4 µM (inactive)
SK-MEL-2
  GI50: 31.6 µM (inactive)
UACC-257
  GI50: 27.2 µM (inactive)
SW-620
  GI50: 25.8 µM (inactive)
SK-OV-3
  GI50: 26.6 µM (inactive)
OVCAR-3
  GI50: 21.8 µM (inactive)
NCI-H226
  GI50: 16.1 µM (inactive)
SK-MEL-28
  GI50: 17.2 µM (inactive)
SNB-19
  GI50: 29.7 µM (inactive)
